Key:
hTGF-β1 promoter [1] = test: Transient transfection and luciferase assay in hVSMC; format: cell-based, human; conditions: for expression of luciferase driven by hTGF-β1 promoter: 10^−9 M, 24 hr incubation
Description: One microgram of the luciferase gene which was controlled by the hTGF-β1 promoter was transfected for 6 hr in sterilized medium using lipofectin reagent. After 24 hr of the transfection, cells were incubated for 24 hr in a medium containing 0.5% CS in the presence (or absence) of the polyamide or the mismatched polyamide, and the luciferase activity was assayed in these cells extracts using a dual luciferase/reporter gene assay system. One hundred μL of luciferase substrate was mixed with 20 μL cell extracts. After the mixing, the reaction mixture was placed in a luminometer (Turner Designs-Bioblock, Illkirch, France), and the light emitted for ten seconds at room temperature was measured. PMA was used as a positive control. Comparison with the control *P<0.05.
(§1) The 2.2 kb fragment containing the hTGF-β1 promoter derived from plasmid phTBG 101 (non-patent document 10) was isolated and inserted to pGL3 basic plasmid (Promega, Madison, Wis.) at the upstream of the coding region of luciferase reporter gene. The accurate structure of the constructed plasmid was identified by spectral analysis with restriction enzymes analysis and sequencing.
hVSMC cells were cultured at a density of […] in 24 well plates in the presence of 10% CS. After 24 hr, the reporter gene that was driven by the hTGF-β1 promoter was transfected using Lipofectin reagent (GibcoBRL) in the presence of 1 μg DNA in the sterilized medium, according to the method indicated by the manufacturer. Cells were incubated with the DNA liposome complex for 6 hours, and then the medium was exchanged to 1 ml of fresh complete medium. […] After brief centrifugation, luciferase activity in the cell extracts was measured using a dual-luciferase reporter gene assay system (Promega, Madison, Wis.). […] After mixing, the reaction mixture was placed in a luminometer (Turner Designs-Bioblock, Illkirch, France), and the light emitted for ten seconds at room temperature was measured.

hTGF-β1 mRNA = test: RT-PCR assay of hTGF-β1 mRNA in hVSMC; format: cell-based, human; conditions: for expression of hTGF-β1 mRNA: 10^−9 M, 24 hr, TPA induced
Description: Treatment with 50 ng/mL of TPA was used as a positive control. […] (A) Five microliters of PCR product was separated on a 1.5% agarose gel electrophoresis. […] Cultured cells were washed with PBS, dissolved in 800 μL of RNAzolB (Biotex Laboratories, Inc., Houston, Tex.), mixed with 80 μL of chloroform and centrifuged. The colorless upper aqueous phase was mixed with an equal volume of isopropanol to precipitate RNA. RNA pellet was washed twice with 500 μL of 75% ethanol and, after drying, dissolved in 10 μL of TE buffer. After denaturing at 65° C. for 15 min, the RNA sample was treated with 0.5 U DNase (Gibco) in 0.5 ml of DNase buffer (20 mM Tris-HCl pH 8.3, 50 mM KCl, 2.5 mM MgCl2) at room temperature for 45 min. DNase was denatured by adding 0.5 ml of 0.5M EDTA and heating at 98° C. for 10 min. RNA aliquots of an equal amount (1 μg/20 μL) were reverse transcribed to single stranded cDNAs using 2.5 U/20 μL of avian myeloblastosis virus reverse transcriptase (Takara Biochemicals, Osaka, Japan) in 10 mM Tris-HCl (pH 8.3), 5 mM MgCl2, 50 mM KCl, 1 mM deoxy NTPs and 2.5 μM random hexamers. Two microliters of the diluted cDNA product was made up to 25 μl by mixing with 10 mM Tris-HCl (pH 8.3), 50 mM KCl, 4 mM MgCl2, 0.025 U/μL Taq DNA polymerase (Takara Biochemicals, Osaka, Japan), and 0.2 μM each of the upstream sense primer and downstream antisense primer. […] For human 18S ribosomal RNA, the sense primer ([…] NO: 6) and the antisense primer ([NT] ID NO: 7) were used as the internal control. PCR was carried out with an automatic heat controller (Perkin Elmer, Foster, Calif.). The PCR conditions were: initial denaturation, at 94° C. for 2 min; 30 cycles of denaturation at 94° C. for 1 min, annealing at 58° C. for 1 min and extension at 72° C. for 1 min; last extension at 72° C. for 1 min. As an internal control, PCR with primers for 18S rRNA was included in each reaction. […] For semi-quantitative analysis of mRNA, the kinetics of PCR was monitored. […] The intensity of the bands was measured by computer analysis using NIH software.

hTGF-β1 promoter [2] = test: In vitro transcription reaction with HeLa nuclear extract; format: biochemical, human; conditions: HeLa nuclei extract, hTGF-β1 promoter template, 30° C., 60 min
Description: One microgram of a plasmid was incubated in the transcription buffer with 8 U of HeLa nucleus extract, 3 kinds of non-labeled nucleotide triphosphates (UTP, CTP, GTP) at […] each, and 25 μM α-^32P-ATP at 30° C. for 60 min. The reaction was terminated by adding 175 μl of HeLa extract stop solution, and then phenol-chloroform-isoamyl alcohol extraction and ethanol precipitation were carried out. Samples were re-suspended in 98% […] loading dye and heated at 90° C. for 10 min before loading a 6%, 7 M urea-polyacrylamide gel. The gel was dried and visualized by autoradiography;
as §1
In vitro transcription reactions were carried out using nuclear extracts of Hela cells and the in vitro transcription system (Promega, Madison, Wis.). […]

[3] = tested on: double stranded oligonucleotide corresponding to the base pairs from −548 to −537 of hTGF-β1 promoter; test: Gel-shift assay: binding of polyamide to double stranded oligonucleotide; design: species or system human; conditions: binding buffer, 37° C., 15 min; 20% polyacrylamide gel, autoradiography
Description: The double stranded DNA corresponding to the base pair sequence from −548 to −537 of the hTGF-β1 promoter (FIG. 1) was labeled by T4 polynucleotide using [γ-^32P]-ATP and incubated in a binding buffer at 37° C. for 15 min together with mismatch polyamide (lane 0) or with increasing amount of the polyamide (lane 1, 2 and 3 was 1 nM, 2 nM and 4 nM, respectively). The complexes thus obtained were electrophoresed on a 20% polyacrylamide gel and visualized by autoradiography.
Oligonucleotides were synthesized, annealed, and 12 kinds of double stranded oligonucleotides were produced corresponding to the base pairs from −548 to −537 of hTGF-β1 promoter (FIG. 1A). The double stranded DNAs were labeled with [γ-^32P]-ATP using T4 polynucleotide kinase, and incubated in a binding buffer (40 mM Tris, pH 7.9, 250 mM NaCl, 25 mM EDTA, 25 mM DTT, 100 mM KCl) with the polyamides or mismatched polyamides at 37° C. for 15 min. The complexes thus obtained were electrophoresed by 20% polyacrylamide gel and visualized by autoradiography.

hTGF-β1 protein = test: Western blot analysis of hTGF-β1 protein in hVSMC; format: cell-based, human; conditions: 10^−9 M, 24 hr incubation
Description: 10^−9 M of the polyamide was added to medium of cultured hVSMC and incubated for 24 hr. (A) The expression of hTGFβ1 protein was investigated by Western blot analysis.
Test VSMC and control VSMC were incubated in 6-well plates for 24 hr, washed twice with PBS and incubated on ice in 300 μL of lysis buffer (50 mM Tris-HCl (pH 8.0), 150 mM NaCl, 1 mM EDTA, 1 mM phenylmethylsulfonyl fluoride, 1 μg/mL aprotinin, 1% Triton X-100) for 30 min. Cells were scraped into a 1.5 mL tube and centrifuged, and the supernatant was collected. The protein content of the supernatant was assayed by Bradford protein assay using BIO-RAD protein assay kit (Bio-Rad Lab, Hercules, Calif.). The supernatant contained 20 μg of total protein, which was denatured at 100° C. for 3 min in the loading buffer, electrophoresed on a 10% polyacrylamide gel and transferred to a nitrocellulose membrane. The membrane was incubated at room temperature for 1 hr with mouse monoclonal antibody with specificity to hTGF-β1 (1:500) (R&D systems, Minneapolis, Minn.), and then incubated at room temperature for 1 hr with anti-mouse HRP conjugated secondary antibody at 1:2000. After washing sufficiently, the membrane was incubated with an […] luminescence substrate (Amersham Life Service, Buckinghamshire, UK) and exposed to an X-ray film.

Description for cultured hVSMC: FITC labeled polyamide was added directly to the culture medium at the concentration of 10^−9 M and observed under a fluorescent microscope.
hVSMC was obtained from Clonetics (Walkersville, Md.). hVSMC was cultured in Dulbecco's modified Eagle's medium (DMEM) containing 10% calf serum (Gibco Life Technologies, Gaithersburg, Md.), 100 U/ml penicillin and 100 mg/ml streptomycin. Cells were passaged by trypsin treatment with 0.05% trypsin (Gibco) in Ca^2+-free and Mg^2+-free phosphate buffered saline (PBS) and cultured in 75-cm^2 tissue culture flasks. The medium was exchanged every four or five days, and experiments were carried out on cells during 5-10 passages.
Passaged hVSMC was cultured at a density of 10^5/cm^2 for 24 hr in a 24-well flask. FITC-labeled polyamides were directly added to the medium at a concentration of 10^−9 M and observed every one hour under a florescent microscope.

binding to the corresponding 12 base pairs double stranded oligonucleotide [3] | Compound | expression of luciferase driven by hTGF-β1 promoter (positive control) (hTGF-β1 promoter [1]; positive control) | expression of hTGF-β1 mRNA (positive control) (hTGF-β1 mRNA; 50 ng/mL) | detection of FITC in the nuclei of cultured hVSMC (cultured hVSMC) | time FITC labeled polyamide remains in the nucleus of cultured hVSMC (cultured hVSMC) | transcription in in vitro transcription system (hTGF-β1 promoter [2]) | expression of luciferase driven by hTGF-β1 promoter (hTGF-β1 promoter [1]) | expression of hTGF-β1 mRNA (hTGF-β1 mRNA) | expression of hTGF-β1 protein (hTGF-β1 protein)
– | CCCCCCCCCCCCCC(=O)O[C@@H]1[C@@H](C)[C@@]2(O)[C@@H](C=C(CO)C[C@]3(O)C(=O)C(C)=C[C@@H]23)[C@H]2C(C)(C)[C@]12OC(C)=O [TPA] | stimulated the expression of luciferase protein | significantly stimulated the expression of hTGF-β1 mRNA | – | – | – | – | – | –
– | CN(C)CCCNC(=O)CCNC(=O)c1cc(NC(=O)c2cc(NC(=O)CCNC(=O)c3cc(NC(=O)c4cc(NC(=O)c5cc(NC(=O)CCCNC(=O)c6cc(NC(=O)c7cc(NC(=O)c8nc(NC(=O)CCNC(=O)c9cc(NC(=O)c%10cc(NC(=O)c%11nc(NC(=O)CCNC(=S)Nc%12ccc%13c(c%12)C(=O)OC%13%12c%13ccc(O)cc%13Oc%13cc(O)ccc%13%12)cn%11C)cn%10C)cn9C)cn8C)cn7C)cn6C)cn5C)cn4C)cn3C)cn2C)cn1C [compound 4a, FITC-β-IPP-β-IPP-γ-PPP-β-PP-β Dp] | – | – | detected in the nuclei of cultured hVSMC at a high density | more than 48 hr | – | – | – | –
failed to bind | Ac-PPP-β-IPP-γ-PPP-β-COOH [mismatch polyamide] | – | – | – | – | did not show any significant effect | had no effect | did not | –
able to bind | CC(=O)Nc1cn(C)c(C(=O)Nc2cc(C(=O)Nc3cc(C(=O)NCCC(=O)Nc4cn(C)c(C(=O)Nc5cc(C(=O)Nc6cc(C(=O)NCCCC(=O)Nc7cc(C(=O)Nc8cc(C(=O)Nc9cc(C(=O)NCCC(=O)Nc%10cc(C(=O)Nc%11cc(C(=O)NCCC(=O)O)n(C)c%11)n(C)c%10)n(C)c9)n(C)c8)n(C)c7)n(C)c6)n(C)c5)n4)n(C)c3)n(C)c2)n1 [compound 4b, Ac-IPP-β-IPP-γ-PPP-β-PP-βCOOH] | – | – | – | – | reduce transcription | significantly downregulated the expression of luciferase | inhibited the expression of hTGF-β1 mRNA induced by TPA | inhibited the expression of hTGF-β1 protein

— patent publication US7807844B2, “TGF-β gene expression inhibitor” (Nihon University, priority 2003, dated 2010)
